Data reported in ChEMBL document CHEMBL2073808, “P-glycoprotein inhibition by the multidrug resistance-reversing agent MS-209 enhances bioavailability and antitumor efficacy of orally administered paclitaxel” (Cancer Chemother Pharmacol, 2002).

Biological target: ATP-dependent translocase ABCB1 (Homo sapiens, UniProt P08183)
Assay: TP_TRANSPORTER: inhibition of Taxol transepithelial transport (basal to apical) in Caco-2 cells
Assay type: functional, cell-based

Chain of ATP-dependent translocase ABCB1 (P08183 whole entry): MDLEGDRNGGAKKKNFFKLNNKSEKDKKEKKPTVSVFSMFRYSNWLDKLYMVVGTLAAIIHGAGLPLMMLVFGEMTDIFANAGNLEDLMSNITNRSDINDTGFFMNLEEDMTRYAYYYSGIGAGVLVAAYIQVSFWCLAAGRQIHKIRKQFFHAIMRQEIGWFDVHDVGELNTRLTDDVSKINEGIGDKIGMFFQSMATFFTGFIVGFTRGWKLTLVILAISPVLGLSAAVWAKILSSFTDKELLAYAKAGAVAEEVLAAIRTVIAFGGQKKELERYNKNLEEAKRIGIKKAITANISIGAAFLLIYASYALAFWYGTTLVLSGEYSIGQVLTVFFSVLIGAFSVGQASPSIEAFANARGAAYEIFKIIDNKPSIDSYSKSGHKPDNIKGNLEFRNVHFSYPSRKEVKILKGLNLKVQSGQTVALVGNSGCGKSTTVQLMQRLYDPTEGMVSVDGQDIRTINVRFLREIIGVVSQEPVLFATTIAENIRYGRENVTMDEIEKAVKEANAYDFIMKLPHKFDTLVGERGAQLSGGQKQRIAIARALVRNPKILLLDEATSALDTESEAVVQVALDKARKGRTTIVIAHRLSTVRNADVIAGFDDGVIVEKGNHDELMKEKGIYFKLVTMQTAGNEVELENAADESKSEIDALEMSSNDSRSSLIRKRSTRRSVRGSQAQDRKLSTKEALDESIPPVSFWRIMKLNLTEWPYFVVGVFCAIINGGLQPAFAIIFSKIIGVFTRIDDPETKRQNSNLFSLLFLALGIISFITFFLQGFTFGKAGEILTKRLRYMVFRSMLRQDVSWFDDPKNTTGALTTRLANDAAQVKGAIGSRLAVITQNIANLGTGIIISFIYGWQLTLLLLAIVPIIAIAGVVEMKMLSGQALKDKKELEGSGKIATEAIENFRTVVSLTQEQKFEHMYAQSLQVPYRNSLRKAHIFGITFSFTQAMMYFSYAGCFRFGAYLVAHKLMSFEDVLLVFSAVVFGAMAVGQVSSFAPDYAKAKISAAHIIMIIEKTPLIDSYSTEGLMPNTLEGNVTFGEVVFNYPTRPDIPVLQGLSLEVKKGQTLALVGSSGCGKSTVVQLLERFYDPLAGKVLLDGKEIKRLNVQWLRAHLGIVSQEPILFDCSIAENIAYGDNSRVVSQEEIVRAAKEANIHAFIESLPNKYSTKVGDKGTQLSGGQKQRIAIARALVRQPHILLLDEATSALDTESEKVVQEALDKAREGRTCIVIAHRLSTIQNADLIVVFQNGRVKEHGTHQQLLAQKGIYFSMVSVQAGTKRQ

Ki: 400 nM
SMILES: O=C(C(c1ccccc1)c1ccccc1)N1CCN(C[C@@H](O)COc2cccc3ncccc23)CC1
